# According to US8138188B2, “Melanocortin type 4 receptor agonist piperidinoylpyrrolidines” (Pfizer Inc., priority 2006, dated 2012):
# Tests used:
# MC4 receptor = MC4 receptor (Homo sapiens, UniProt P32245); experiment: MC4 functional agonist potency (EC50), assay protocol E of US2005/0176772 / WO 2005/077935; format: cell-based; conditions: functional potency at the MC4 receptor
# Description: The compounds of formula (I) of the present invention have utility as MCR4 agonists in the treatment of various disease states.
# MC5 and MC4 EC50 activity was determined as described by assay protocols D and E, respectively, in US2005/0176772 (pages 28-30).
# human MC3 receptor = biological target: T1, human MC3 receptor (Homo sapiens, UniProt P41968); experiment: In vitro agonist potency (EC50) against melanocortin receptor type 3, cAMP in recombinant cell line; format: cell-based; conditions: cell line stably transfected with human MC3, 1 hour at 37° C.
# T1 construct: stably transfected with full length cDNA encoding human MC1 or MC3 receptors; expressed in transfected cells; host or cells: Chinese hamster ovary cell line (MC3; 'respectively')
# T1 sequence (P41968 whole entry): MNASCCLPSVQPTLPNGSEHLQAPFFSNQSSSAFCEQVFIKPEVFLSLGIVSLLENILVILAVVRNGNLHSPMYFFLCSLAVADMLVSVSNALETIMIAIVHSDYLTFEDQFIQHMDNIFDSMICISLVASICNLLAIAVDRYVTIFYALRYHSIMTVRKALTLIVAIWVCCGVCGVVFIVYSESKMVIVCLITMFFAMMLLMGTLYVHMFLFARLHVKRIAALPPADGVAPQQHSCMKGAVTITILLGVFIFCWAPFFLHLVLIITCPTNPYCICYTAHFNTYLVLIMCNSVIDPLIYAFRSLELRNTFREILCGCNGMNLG
# Description: Measurement of In Vitro Agonist Potency (EC50) of Compounds Against Melanocortin Receptors Type 1 and 3 (MC1 and MC3).
# Activation of melanocortin (MC) receptors by agonists results in activation of intracellular adenylate cyclase enzymes that synthesise the second messenger signalling molecule, adenosine 3′,5′-cyclic monophosphate (cAMP). Changes in cAMP levels following treatment of recombinant MC1 and MC3 cell lines with test compound were measured and an MC1 and MC3 potency estimate (EC50) calculated as follows: […]
# Human embryonic kidney (HEK) or Chinese hamster ovary cell lines stably transfected with full length cDNA encoding human MC1 or MC3 receptors, respectively, were established using standard molecular biology methods. Test compounds were dissolved in dimethyl sulfoxide (DMSO) at 4 mM. 11 point half log unit increment dilution series of test compound, typically starting at 50 uM were prepared in a buffer comprised of phosphate buffered saline (PBS), 2.5% DMSO and 0.05% pluronic F-127 surfactant. Freshly cultured cells at 80-90% confluence were harvested and re-suspended in Dulbecco's Modified Eagle's Medium (DMEM). Cells (10,000 for MC3, 20,000 for MC1) were added to the test compound dilution series in a 384 well assay plate and incubated for 1 hour at 37° C. The relative cAMP concentration in each well was then measured using a β-galactosidase enzyme fragment complementation method purchased in kit form as the Discoverx cAMP II kit from GE Healthcare/Amersham Biosciences UK. In the case of MC1,3-Isobutyl-1-methylxanthine (IBMX) at a concentration of 750 μM was included in DMEM as the cells were re-suspended for assay. […] Sigmoidal curves were fitted to plots of log10 inhibitor concentration vs percent effect using a custom made software application called SIGHTS and EC50 estimates determined by the software as the concentration of test compound giving an effect half way between the bottom and top assymptopes of the sigmoidal dose response curve. Each experiment included an EC50 determination for alpha melanocyte stimulating hormone, which was used as a standard to track assay consistency and allow fair comparison between EC50 estimates obtained in different experiments.
# [1] = In vitro metabolism rate determination, human liver microsome (HLM) assay; format: in vitro ADME; conditions: human liver microsomes, substrate 1 μM; read-out: HLM (intrinsic clearance)
# Excerpt: (§1) In vitro Metabolism Rate Determination (Human Liver Microsome (HLM); Rat Liver Microsome (RLM) Assay)
# (§2) Many drugs are metabolised by the cytochrome P450 mono-oxygenase system. This enzyme is found in high concentrations in the liver and is bound to the endoplasmic reticulum of the hepatocyte. The enzyme system can be obtained in semi-purified state by the preparation of the hepatic microsomal fractions. Determining a compound's in vitro half-life in such a system provides a useful indicator of metabolic stability.
# (§3) Methodology For In Vitro Rate Determination Using Hepatic & Supermix Microsomes
# (§4) The method outlined below is for a total incubation volume of 1.5 ml.
# (§5) 1. The following mixture is prepared in a test tube:
# (§6) 2. Defrost microsomes at room temperature and add sufficient microsomes to give a final concentration of 0.5 nmol cytochrome P450/ml of incubation e.g. for a 1.5 ml incubation, the volume of microsomes to be added is:
# (§7) [formula] 3. Add sufficient MilliQ water to give a total incubation volume of 1.425 ml. 4. Remove 237.5 μl of incubation mix and place in test tube for PNA positive control. Add 2.5 μl of PNA solution, whirlimix, and put tube into a rack in the thermostatically controlled shaking water bath 5. Remove 100 μl for no substrate control and dispense in test tube. Place test tube in a rack in the thermostatically controlled shaking water bath. 6. Add substrate to the incubation. The substrate should be at an initial concentration of 1 μM. The volume of substrate required in the remaining 1.162.5 ml incubation is calculated as follows:
# (§8) [formula] • N.B. The volume of organic solvent added should not exceed 0.1% of the total incubation volume. 7. Remove 100 μl of incubation mix into test tube for no cofactor control. Whirlimix and put into a rack in the thermostatically controlled shaking water bath. 8. Pre-incubate the tube containing the incubation mix, also positive control and no cofactor tubes in the thermostatically controlled shaking water bath set at 37° C. for approx 5 min. 9. Add NADP to initiate reaction (75 μl to each 1.162.5 ml incubation mix, 12.5 μl to positive control tube and 5 μl to no substrate tube) and take first time point immediately. The PNA positive control, no cofactor control and no substrate tubes are incubated for the total incubation time. 10. Remove 100 μl aliquots up to 9 different sampling points from 0 to 60 min (usually 0, 3, 5, 10, 15, 20, 30, 45 & 60 min) and terminate reaction. Longer incubation times can be used, but, after 120 min the microsomes deteriorate. The reaction may be terminated by addition of organic solvent, acid or base. At the end of the incubation process the no cofactor and no substrate controls in a similar manner i.e. terminate with the same reagent. 11. PNA Positive Control Procedure: • After the final sample has been taken, remove the positive control and add 1 ml 20% TCA to this tube. Also prepare a tube containing 250 μl of a PNP standard at 50 μM, and add 1 ml 20% TCA. Whirlimix both tubes and leave for approx 5 min to allow the protein to precipitate. • Centrifuge both tubes for approx 5 min in an instrument set at 3500 rpm. Remove 1 ml of supernatant and place into clean test tubes, discard the remainder. • Add 1 ml 10M NaOH to the supernatant, whirlimix, and leave to stand for approx min. Blank spectrophotometer with distilled water at 400 nm then measure absorbance of the PNP standard against distilled water. The microsomal 4-nitroanisole O-demethylase activity is calculated as follows: Calculation of Results
# (§9) [formula] • The activity value from the incubation MUST be equal to or greater than 85% of the mean value of the batch used for the incubation to be valid. If this criteria is not met, then the incubation must be repeated. 11. Analyse samples (including no cofactor and no substrate control) by a specific assay for the substrate to determine the disappearance kinetics. Analysis Of Data […]
# [2] = In vitro metabolism rate determination, rat liver microsome (RLM) assay; format: in vitro ADME; conditions: rat liver microsomes, substrate 1 μM; read-out: RLM (intrinsic clearance)
# Excerpt: as §1, §2, §3, §4, §5, §6, §7, §8, §9
# CYP3A4 = biological target: T2, CYP3A4 (Homo sapiens, UniProt P08684); experiment: High density drug-drug interactions (DDI) 3 μM cocktail screen in human liver microsomes; format: in vitro ADME; conditions: 3 uM test compound, pooled human liver microsomes, probe midazolam 2 μM; read-out: % Inhibition of 3A4 metabolism at 3 uM
# T2 construct: utilizes human liver microsomes together with isoform-specific clinical drug probes; from tissue; host or cells: human liver microsomes
# T2 sequence (P08684 whole entry, canonical isoform): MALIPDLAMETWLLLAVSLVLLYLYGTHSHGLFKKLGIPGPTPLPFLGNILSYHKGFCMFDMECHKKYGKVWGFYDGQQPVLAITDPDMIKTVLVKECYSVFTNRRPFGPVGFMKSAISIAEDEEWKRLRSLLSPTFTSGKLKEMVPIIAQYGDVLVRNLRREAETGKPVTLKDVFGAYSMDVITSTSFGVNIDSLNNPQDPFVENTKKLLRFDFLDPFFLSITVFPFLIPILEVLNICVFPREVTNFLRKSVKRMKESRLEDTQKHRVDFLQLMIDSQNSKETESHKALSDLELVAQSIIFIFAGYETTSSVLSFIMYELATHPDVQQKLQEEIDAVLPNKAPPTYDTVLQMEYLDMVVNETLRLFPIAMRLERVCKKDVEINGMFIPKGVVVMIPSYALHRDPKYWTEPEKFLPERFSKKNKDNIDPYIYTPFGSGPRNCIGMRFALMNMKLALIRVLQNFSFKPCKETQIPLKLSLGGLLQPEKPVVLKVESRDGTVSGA
# Description: High Density Drug-Drug Interactions (DDI) 3 μM Cocktail Screen
# A drug interaction is a situation in which a substance affects the activity of another drug, i.e. the effects are increased or decreased, or together they produce a new effect that neither produces on its own. Drug interactions may be the result of various processes but a relatively common one is where one drug affects the pharmacokinetics of another by inhibiting the cytochrome P450 that metabolises it. Because of the importance of these phenomena, assessment of the DDI potential for new chemical entities (NCEs) is considered important early on in the drug discovery process.
# The DDI cocktail screen in human liver microsomes (HLM) is run in a fully automated fashion and the aim of the screen is to provide a single-point assessment of the DDI potential of new chemical entity (NCE; tested at 3 μM) against the 4 primary cytochrome P450 enzymes, 1A2, 2D6, 2C9 and 3A4.
# The substrate cocktail approach for P450 DDI utilizes human liver microsomes together with isoform-specific clinical drug probes and permits the simultaneous measurement of the inhibition of P450 1A2, 2C9, 2D6 & 3A4 activities in a single incubation. This is run in high throughput with simultaneous detection of metabolites by LC-MS/MS. This method has been thoroughly tested and evaluated using standard compounds.
# Appearance of the metabolite of each substrate is measured over time in the presence and absence of the NCE (test compound/inhibitor) at a concentration of 3 μM. The compounds are assessed for their inhibitory potential as a percentage value and interpreted using the following scheme.
# MC4 receptor (MC4R) = biological target: T3, MC4 receptor (MC4R) (Homo sapiens, UniProt P32245); experiment: AGRP inhibition: competition binding vs [125I]AGRP(87-132) at CHO-CRE MC4R cell membranes; conditions: vs 0.3 nM [125I]AGRP(87-132)
# T3 construct: expressed in transfected cells; host or cells: CHO-CRE MC4R cells (membranes)
# T3 sequence (P32245 whole entry): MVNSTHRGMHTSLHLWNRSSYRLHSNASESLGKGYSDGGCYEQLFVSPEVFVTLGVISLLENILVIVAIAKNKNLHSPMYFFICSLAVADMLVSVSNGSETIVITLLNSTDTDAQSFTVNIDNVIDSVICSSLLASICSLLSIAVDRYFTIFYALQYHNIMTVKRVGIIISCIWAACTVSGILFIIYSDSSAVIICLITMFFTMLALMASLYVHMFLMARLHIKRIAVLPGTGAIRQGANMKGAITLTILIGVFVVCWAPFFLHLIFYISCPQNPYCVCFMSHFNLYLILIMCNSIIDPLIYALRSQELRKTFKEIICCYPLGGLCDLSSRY
# Excerpt: Agouti related protein (AGRP) is a high affinity endogenous antagonist/inverse agonist for the MC4 receptor (Lu et al., 1994, Nature 371: 799-802; Oilman et al., 1997, Science 278: 135-138). […] It has been ascertained that this C-terminal fragment of AGRP contains the MC4R binding determinants (Yang et al., 1999, Mol Endocrinol 13: 148-155), therefore, compounds can be evaluated for their ability to inhibit AGRP binding to membranes from cells expressing the MC4R using a competition binding assay versus [^125I]AGRP(87-132). To this end cells expressing the MC4R were subject to homogenisation and the membrane fragment isolated by differential centrifugation. CHO-CRE MC4R cell membranes (12 μg protein) were incubated with 0.3 nM [^125I]AGRP(87-132) and 11 half-log concentrations of competitor ligand, in duplicate, in a total volume of 100 μl buffer (25 mM HEPES, 1 mM MgCl2, 2.5 mM CaCl2, 0.5% BSA pH 7.0). Non-specific binding was determined by the inclusion of 1 μM SHU9119. The reaction was initiated by the addition of membranes and plates were incubated at room temperature for 2 hours. The reaction was terminated by rapid filtration onto GF/C filters (presoaked in 1% PEI) using a vacuum harvester followed by five 200 μl washes of ice cold wash buffer (Binding buffer containing 500 mM NaCl). The filters were soaked in 50 μl scintillation fluid and the amount of radioactivity present was determined by liquid scintillation counting. Ki values were determined by data analysis using appropriate software.
# Chain of MC4 receptor (P32245 whole entry): as above
Structure (SMILES),EC50 (MC4 receptor) [nM],EC50 (human MC3 receptor) [nM],microsomal CLint at 1 μM [1] [µL/min/mg],microsomal CLint at 1 μM [2] [µL/min/mg],inhibition at 3 μM (CYP3A4) [%],Ki (MC4 receptor (MC4R)) [nM]
COc1ccc([C@@H]2CN(c3cccnn3)C[C@H]2C(=O)N2C[C@@H](C)[C@](O)(c3ccc(F)cc3)[C@@H](C)C2)cn1 [Example 11],111,,14,,,417
COc1ccc(C2CN(c3cccnn3)CC2C(=O)N2CC(C)C(O)(c3ccccc3)C(C)C2)cn1 (stereo not drawn) [Example 12],91.6,,> 352,88.5,,
COc1ccc([C@@H]2CN(c3ccc(C#N)cn3)C[C@H]2C(=O)N2C[C@@H](C)[C@](O)(c3ccc(F)cc3)[C@@H](C)C2)cn1 [Example 14],115,129,< 9,< 9.75,,
C[C@@H]1CN(C(=O)[C@@H]2CN(c3ccc(Cl)nn3)C[C@H]2c2ccc(F)cn2)C[C@H](C)[C@@]1(O)c1ccc(F)cc1 [Example 36],168,,< 7,17,59,1020
C[C@@H]1CN(C(=O)[C@@H]2CN(c3ccc(=O)[nH]n3)C[C@H]2c2ccc(F)cn2)C[C@H](C)[C@@]1(O)c1ccc(F)cc1 [Example 38],102,,< 7,< 8.5,58,336
COc1ccc([C@@H]2CN(c3ccc(Cl)nn3)C[C@H]2C(=O)N2C[C@@H](C)[C@](O)(c3ccc(F)cc3)[C@@H](C)C2)nc1 [Example 44],284,> 9630,,,27,2130

# Compounds with a lower EC50 (MC4 receptor), results first:
EC50 (MC4 receptor) [nM],EC50 (human MC3 receptor) [nM],microsomal CLint at 1 μM [1] [µL/min/mg],microsomal CLint at 1 μM [2] [µL/min/mg],inhibition at 3 μM (CYP3A4) [%],Ki (MC4 receptor (MC4R)) [nM],Structure (SMILES)
11.9,16.4,< 7,< 19.8,60,,"C[C@@H]1CN(C(=O)[C@@H]2CN(c3ccc(Cl)nn3)C[C@H]2c2ccc(Cl)cn2)C[C@H](C)[C@@]1(O)c1ccc(F)cc1 [Example 3, (3R,4R,5S)-1-{[(3S,4S)-1-(6-Chloropyridazin-3-yl)-4-(5-chloropyridin-2-yl)pyrrolidin-3-yl]carbonyl}-4-(4-fluorophenyl)-3,5-dimethylpiperidin-4-ol]"
37.6,1020,,,6,106,COc1ccc([C@@H]2CN(c3cncc(F)c3)C[C@H]2C(=O)N2C[C@@H](C)[C@](O)(c3ccc(F)cc3)[C@@H](C)C2)cn1 [Example 13]
53.9,> 33400,,,,,COc1ccc(C2CN(c3cncc(C#N)c3)CC2C(=O)N2CC(C)C(O)(c3ccc(F)cc3)C(C)C2)cn1 (stereo not drawn) [Example 15]
7.54,,105,36,59,40,C[C@@H]1CN(C(=O)[C@@H]2CN(c3ccc(C#N)nn3)C[C@H]2c2ccc(Cl)cn2)C[C@H](C)[C@@]1(O)c1ccccc1 [Example 29]
39.2,,< 7,< 8.5,50,375,C[C@@H]1CN(C(=O)[C@@H]2CN(c3ccc(C#N)nn3)C[C@H]2c2ccc(F)cn2)C[C@H](C)[C@@]1(O)c1ccc(F)cc1 [Example 34]
